Data on three compounds can be found in paper PMC5609876, “Metformin selectively targets redox control of complex I energy transduction” (Redox Biology, 2017).

Assay [1] addresses T1, complex I.
T1 construct: gene NDUFV1; MitoTox Complex I OXPHOS Activity Microplate Assay (ab109903)
The assay can be described thus: complex I NADH:paraquat electron transfer, microplate activity assay (ubiquinone replaced by paraquat). Type of assay: biochemical, Bos taurus.

In assay [2] the test system is T2, complex I.
T2 construct: gene Ndufv1; submitochondrial particles from rat liver
Description: NADH oxidation in rat liver submitochondrial particles. Format: biochemical.

The term pIC50 denotes the negative decadic logarithm of the IC50, by convention in mol/L.

pIC50: −log10 of the molar value. Where two headings read alike, the source gives them in different places.

In turn, `[H]/N=C(/N)NCCCCCNC(=N)N` [DG5] gave a pIC50 in assay [1] of 1.92.

In the case of `CN(C)C(=N)N=C(N)N` [metformin], in assay [1] (read-out: IC50), the pIC50 was 1.04.

As to `[H]/N=C(/N)N/C(=N/[H])NCCc1ccccc1` [phenformin], the “NADH oxidation in rat liver submitochondrial particles” value in assay [2] is “Effects of both phenformin and DG5 on NADH oxidation were observed at much lower concentrations than responses to metformin”.
